Test system: rat PCA response
Experiment: Rat Passive Cutaneous Anaphylaxis (PCA) test
Type: in vivo, rat (Wistar)
Conditions: sc, subcutaneous
Description: Some of the ω-nitroacetophenones prepared in the preceding Examples were submitted for biological testing. The test system was the Rat Passive Cutaneous Anaphylaxis (PCA) test described below in (ii).
i. Serum containing heat labile homocytotropic antibody was raised in rats by a method similar to that used by Mota. (I. Mota Immunology 1964, 7, 681).
Male Wistar rats of 250-300 g, were injected intraperitoneally with 0.5 ml of Bordatella pertussis vaccine (containing 4 × 10^10 dead organism per ml) and subcutaneously with 0.5 ml of an emulsion of 100 mg. of ovalbumin in 2 ml of saline and 3 ml of incomplete Freunds' adjuvant. Rats were bled by cardiac puncture on day 18, the blood was pooled and separated and serum stored at -20° and thawed only once before use.
ii. The P.C.A. test was similar to that described by Ovary and Bier (A. Ovary and O. E. Bier, Prod. Soc. Exp. Biol. Med. 1952, 81, 584) and Goose and Blair (J. Goose and AM.J. N Blair, Immunology 1969, 16, 769)
0.1 ml of each of six twofold serial dilutions of the serum in 0.9% saline were injected intradermally into separate sites on the shaved dorsal surface of 250-350 g Wistar rats. 72 hours later the animals were challlenged by i.v. injection of 0.3 ml of 1% ovalbumin mixed with 0.1 ml of a 5% solution of pontamine sky blue dye both in isotonic saline buffered with pH. 7.2 Sorenson buffer (P.B.S.). The rats were killed after 20 minutes and the diameter of the blue wheals at the antibody injection sites were measured. The starting dilution of the serum was adjusted so that there was no response, after challenge, at the site of injection of the highest dilution and a maximum response at the two or three lowest dilutions. Typically, six twofold serial dilutions of the serum from 1/4 to 1/128 were used.
Compounds were tested for their ability to reduce the diameter of the wheals at the injection sites of dilutions of antibody which on all the controls have less than maximum response. Amounts of the compounds were administered to rats by subcutaneous injection, into the nuchal region, of a solution of the compound in P.B.S. or as a suspension in 1% methyl cellulose, each amount to a test group of six animals at a specified time prior to intravenous challenge with ovalbumin. THe diameters of the blue wheals which developed on the tests group of aimals were compared with those on a control group of six animals treated in the same way as the test group, but which; had received an equivalent subcutaneous injection of the carrier fluid not containing the same volume of the compound under test.
% Inhibition of P.C.A. = 100 (1 - a/b)
a = The mean of the sum of the diameters of the wheals produced in the test group of animals at those antibody sites where all the control group of animals gave less than maximum response.
b = The mean of the sum of diameters of the wheals produced in the control group of amimals at those antibody sites where all the animals in the group gave less than maximum response.
The preferred method of administration was a solution of the test compound dissolved in pH 7.2 buffer and neutralised with sodium bicarbonate. For those compounds having insoluble sodium salts, the salts were isolated by reaction of the free nitro compound with 2.5N sodium hydroxide and the filtered sodium salt washed free of alkali with water. The dried salts were then administered as a suspension in 1% methyl cellulose.

| SMILES | inhibition in vivo at 25 mg/kg (0 mins prior to challenge) | inhibition in vivo at 25 mg/kg (30 mins prior to challenge) | inhibition in vivo at 100 mg/kg (0 mins prior to challenge) | inhibition in vivo at 100 mg/kg (30 mins prior to challenge) | inhibition in vivo at 25 mg/kg (60 mins prior to challenge) | inhibition in vivo at 100 mg/kg (60 mins prior to challenge) | inhibition in vivo at 84 mg/kg (0 mins prior to challenge) | inhibition in vivo at 84 mg/kg (30 mins prior to challenge) |
| --- | --- | --- | --- | --- | --- | --- | --- | --- |
| Cc1cc(C(=O)C[N+](=O)[O-])c(C(=O)OC(C)C)cc1C [Example 6, 2-Isopropoxycarbonyl-4,5-dimethyl-ω-nitroacetophenone] | 16% | 20% | 30% | 41% |  |  |  |  |
| Cc1cc(C(=O)O)c(C(=O)C[N+](=O)[O-])cc1C [Example 9, 4,5-dimethyl-ω-nitroacetophenone-2-carboxylic acid] | 33% |  | 57% |  | 13% | 32% |  |  |
| COC(=O)c1cc(C)c(C)cc1C(=O)C[N+](=O)[O-] [Example 3, 2-methoxycarbonyl-4,5-dimethyl-ω-nitroacetophenone] | 22% |  | 34% |  | 51% | 58% |  |  |
| CCOC(=O)c1ccccc1C(=O)C[N+](=O)[O-] [Example 2, 2-ethoxycarbonyl-ω-nitroacetophenone] | 22% |  | 34% |  | 57% | 58% |  |  |
| CCCOC(=O)c1cc(C)c(C)cc1C(=O)C[N+](=O)[O-] [Example 5, 2-^n propoxycarbonyl-4,5-dimethyl-ω-nitroacetophenone] | 7% |  | 11% |  | 44% | 54% |  |  |
| CCOC(=O)c1cc(C)c(C)cc1C(=O)C[N+](=O)[O-] [Example 4, 2-ethoxycarbonyl-4,5-dimethyl-ω-nitroacetophenone] | 12% |  | 16% |  | 53% | 42% |  |  |
| O=C(O)c1ccccc1C(=O)C[N+](=O)[O-] [Example 8, ω-nitroacetophenone-2-carboxylic acid] | 12% | 18% | 48% | 37% |  |  |  |  |
| COC(=O)c1cccc(-c2ccccc2)c1C(=O)C[N+](=O)[O-] [Example 7] | 8% |  | 14% |  | -13% | -2% |  |  |
| O=C(C[N+](=O)[O-])c1cccc(-c2ccccc2)c1C(=O)O [Example 10, ω-nitro-3-phenylacetophenone-2-carboxylic acid] | 2% | 11% |  |  |  |  | 23% | 21% |
| COC(=O)c1ccccc1C(=O)C[N+](=O)[O-] [Example 1, 2-methoxycarbonyl-ω-nitroacetophenone] | 0% |  | 12% |  | 32% | 23% |  |  |

From patent US3983156A, “Substituted ω-nitroacetophenones” (Beecham Group Limited, priority 1973, dated 1976)
